Test results taken from patent publication US6531512B1, “Method of treating cancer in patients having a deficiency in p53 tumor suppressor gene” (Health Research Inc., priority 1998, dated 2003).

Columns and labels:
[1] = test system: SK-MEL-28 human melanoma cells; assay: Cell growth / apoptotic response of SK-MEL-28 cells (Coulter Counter, growth kinetics); format: cell-based; details: SK-MEL-28 cells; for % Control Growth: 24 hours, Table 4; for cell growth and/or apoptosis response: growth kinetic analysis
Experimental: (§1) MALME-3M human melanoma cells containing wt-p53 (American Tissue Type Culture Collection, Bethesda, Md.) and human SK-MEL-28 cells containing mt-p53 (American Tissue Type Culture Collection, Bethesda, Md.) were cultured as a monolayer in RPMI 1640 medium containing 10% Nu-Serum (Collaborative Research Products, Bedford, Mass.), 1 mM aminoguanidine, penicillin (50 units/ml) and streptomycin (50 μg/ml) as described by Kramer et al, J. Biol. Chem., 270:2124-32 (1995) and Kramer et al., Cancer Res., 57:5521-5527 (1997).
(§2) MALME-3M cells were cultured as described in Example 1. The cells were seeded by adding 1×10^5 cells to a T-25 vented cell culture flask. After 24 hours, the asynchronous cell cultures were treated with 10 μM N^1, N^11-diethylnorspermine (DENSPM) prepared by dissolving DENSPM in distilled water and sterilizing the solution by filtration through a 0.22 micron Millipore membrane. The cells were treated by continuous exposure to DENSPM for 6 days (i.e., the polyamine was added to the cell culture at T=0 and the culture was incubated for the desired amount of time). The number of viable MALME-3M cells were monitored electronically using a Model ZM Coulter Counter (Coulter Electronics, Hialeah, Fla.). Untreated MALME-3M cell cultures were used as controls.
(§3) MALME-3M human melanoma cells were cultured as described in Example 1 and treated continuously with 10 μM DENSPM or 10 μM spermine (SPM) for 48 hours. SK-MEL-28 cells were also cultured as described in Example 1 and treated with 10 μM DENSPM for 24 hours. Untreated cells were used as a control.
The effect of DENSPM and spermine on cell growth was monitored using a Coulter Counter (see Example 2). The effect on cell cycle was monitored by flow cytometry as described in Example 3. […]

[2] = test system: ornithine decarboxylate (ODC); assay: Polyamine enzyme activity in treated melanoma cells: ODC; format: cell-based, human; details: for Enzyme Activities, ODC: SK-MEL-28 cells, 24 hours, Table 4
Experimental: (§4) MALME-3M human melanoma cells were cultured as described in Example 1 and treated with 10 μM DENSPM or 10 μM spermine (SPM) as described in Example 4. SK-MEL-28 cells were also cultured as described in Example 1 and treated with 10 μM DENSPM as describe in Example 4. Untreated cells were used as a control.
(§5) After treatment with DENSPM or spermine, biochemical parameters including polyamine enzymes activity, polyamine pools and analog accumulation were monitored as described by Kramer et al, J. Biol. Chem., 270:2124-32 (1995) and Kramer et al., Cancer Res., 57:5521-5527 (1997). Polyamine enzyme activity was monitored for ornithine […] (ODC); S-adenosylmethionine decarboxylase (SAMDC); and spermidine/spermine N^1-acetyltransferase (SSAT). Polyamine pools was monitored for putrescine (Put); spermidine (Spd); and spermine (Spm).
(§6) Enzyme activity and polyamine pools were measured as described in Example 5.

[3] = test system: spermidine/spermine N^1-acetyltransferase (SSAT); assay: Polyamine enzyme activity in treated melanoma cells: SSAT induction; format: cell-based, human; details: for Enzyme Activities, SSAT: Table 4
Experimental: as §4, §5, §6

[4] = test system: SK-MEL-28 human melanoma cells; assay: Polyamine pools and analog accumulation in SK-MEL-28 cells; format: cell-based; details: SK-MEL-28 cells, 24 hours; for Analog (intracellular accumulation) / Polyamine Pools, Put / Polyamine Pools, Spd / Polyamine Pools, Spm: Table 4
Experimental: as §4, §5, §6

[5] = test system: MALME-3M human melanoma cells; assay: Cell growth of MALME-3M cells (Coulter Counter); format: cell-based; details: 10 μM
Experimental: as §1, §2, §3
(§7) The effect of DENSPM and spermine on cell growth was monitored using a Coulter Counter (see Example 2). The effect on cell cycle was monitored by flow cytometry as described in Example 3.

[6] = test system: MALME-3M human melanoma cells; assay: Cell cycle distribution of MALME-3M cells by flow cytometry; format: cell-based; details: MALME-3M (wt-p53), asynchronous, 10 μM, 48 hours
Experimental: MALME-3M cells were cultured as described in Example 1 and treated with 10 μM DENSPM as described in Example 2. Cell cycle arrest was monitored using a FACScan flow cytometry unit (Becton Dickinson, San Jose, Calif.) according to the method of Krishan (1975) J. Cell Biol. 66:[…]. Untreated MALME-3M cell cultures were used as controls.
Cell cycle arrest of serum synchronized MALME-3M cells was also monitored using flow cytometry. MALME-3M cells were synchronized in G0/G1 by replacing cell culture media containing 10% NuSerum (see Example 1) with media lacking NuSerum and incubating the cultures for 120 hours. The synchronized cells were released by the addition of 10% NuSerum (control culture) or 10% NuSerum plus 10 μM DENSPM. The cells were then grown continuously in the presence of serum (control) or DENSPM for up to 96 hours. The untreated cells (control) re-established an asynchronous profile (i.e., progressed through the cell cycle) by 60 hours.
as §7

[7] = test system: S-adenosylmethionine decarboxylase (SAMDC); assay: Polyamine enzyme activity in treated melanoma cells: SAMDC; format: cell-based, human; details: MALME-3M (wt-p53), 10 μM, Table 2 (24 hours treatment)
Experimental: as §4, §5

[8] = test system: MALME-3M human melanoma cells; assay: Polyamine pools in MALME-3M cells; format: cell-based; details: MALME-3M (wt-p53), 10 μM, Table 2 (24 hours treatment)
Experimental: as §4, §5

[9] = MALME-3M (wt-p53), 10 μM, Table 2 (24 hours treatment)

Structure (SMILES)	% Control Growth [1]	cell growth and/or apoptosis response [1]	Enzyme Activities, ODC [2]	SSAT activity ([3]; SK-MEL-28 cells, 24 hours)	Enzyme Activities, SSAT ([3]; SK-MEL-28 cells, 24 hours)	Analog (intracellular accumulation) [4]	Polyamine Pools, Put [4]	Polyamine Pools, Spd [4]	Polyamine Pools, Spm [4]	further results
CCNCCCNCCCCNCCCNCC [DE-343, N^1,N^12-diethylspermine]	59%	apoptotic response similar to that by DENSPM with a 24 hour delay	23 pmol/hr/mg protein	9,470 pmol/min/mg	9470 pmol/min/mg protein	5830 pmol/10^6 cells	60 pmol/10^6 cells	60 pmol/10^6 cells	200 pmol/10^6 cells	SSAT activity relative to DE-444 (times higher) ([3]; SK-MEL-28 cells): 10 times; SSAT activity relative to DENSPM (fold less) ([3]; SK-MEL-28 cells): about 3 fold
NCCCNCCCCNCCCN [SPM, spermine, reference compound]	–	–	–	–	–	–	–	–	–	% Control Growth ([5]; MALME-3M (wt-p53), 48 hours): 96%; % Growth Control ([5]; MALME-3M (wt-p53), Table 2 (24 hours treatment)): 97%; effect on growth or cell cycle compared to control cells ([5]; MALME-3M, 48 hours): no effect; % Total Cells at 48 hours, G1 [6]: 67%; % Total Cells at 48 hours, G2/M [6]: 10%; % Total Cells at 48 hours, S [6]: 23%; ODC activity [2, 9]: 175 pmol/hr/mg protein; SAMDC activity [7]: 20 pmol/hr/mg protein; SSAT activity [3, 9]: 210 pmol/min/mg; Polyamine Pools, Put [8]: <5 pmol/10^6 cells; Polyamine Pools, Spd [8]: 470 pmol/10^6 cells; Polyamine Pools, Spm [8]: 2430 pmol/10^6 cells
CCNCCCCNCCCCNCCCCNCC [DE-444, N^1,N^14-diethylhomospermine]	97%	cytostatic response	14 pmol/hr/mg protein	930 pmol/min/mg	930 pmol/min/mg protein	5950 pmol/10^6 cells	20 pmol/10^6 cells	120 pmol/10^6 cells	1015 pmol/10^6 cells	decrease in spermine pools [4]: 65%
CCNCCCCNCCCCNCCCNCC [DE-443, 3,7,12,17-tetraazanonadecane]	77%	apoptotic response with a 48 hour delay	32 pmol/hr/mg protein	5,215 pmol/min/mg	5215 pmol/min/mg protein	5610 pmol/10^6 cells	20 pmol/10^6 cells	70 pmol/10^6 cells	500 pmol/10^6 cells	–
